# Data as given in publication PMC11160895 (Research Square, 2024).
# How the values were obtained:
# TCR4 = experiment: SPR binding of TCR4 to peptide/HLA-A3 complexes, 4 °C; details: HBS-EP pH 7.4, gp100 presented by HLA-A2 as irrelevant negative control
# Protocol: To help ensure the stability of the samples, we also performed the experiments at the reduced temperature of 4 °C.
# Affinities and binding kinetics were measured via surface plasmon resonance using a Biacore T200 instrument. […] The s3–4 scTv was employed as a positive control and the irrelevant Tax11–19/HLA-A*02:01 or gp100/HLA-A*02:01 complexes as a negative control. […] Experiments were performed at either 4 °C or 25 °C as indicated with a blank activated and deactivated flow cell as reference. Binding affinities were determined by fitting the curve of the reference-subtracted steady-state responses against the injected protein concentrations to a 1:1 binding model in OriginPro 2024. For measurements of dissociation rates, experiments were performed at 4 °C. TCRs or the s3–4 scTV were immobilized to approximately 300 RU on a CM5 Series S sensor chip with peptide/MHC complexes injected at a flow rate of 100 μL/min. The dissociation rate (koff) of a TCR-pMHC binding was determined by fitting the dissociation phase of the sensorgram to a single exponential decay function in OriginPro 2024. The association rate (kon) was calculated from the ratio of measured koff and the separately measured KD at 4 °C using kon=koff/KD.
# neoantigen-specific TCRs = details: cited from earlier work
# Source text: The slight change in the position of the side chain in the complex with TCR3 distorts the geometry of this interaction, although the side chain is still embedded in a complex electrostatic environment with structur ...
# HLA-A3 [1] = target: T1, HLA-A3 (Homo sapiens, UniProt P04439); details: fluorescence anisotropy, position 5 5-carboxyfluorescein-lysine peptide, 100 nM complex + 100 μM unlabeled peptide, 20 mM NaH2PO4, 75 mM NaCl, pH 7.4; cited from earlier work
# T1 sequence (P04439 25-308 limits assumed): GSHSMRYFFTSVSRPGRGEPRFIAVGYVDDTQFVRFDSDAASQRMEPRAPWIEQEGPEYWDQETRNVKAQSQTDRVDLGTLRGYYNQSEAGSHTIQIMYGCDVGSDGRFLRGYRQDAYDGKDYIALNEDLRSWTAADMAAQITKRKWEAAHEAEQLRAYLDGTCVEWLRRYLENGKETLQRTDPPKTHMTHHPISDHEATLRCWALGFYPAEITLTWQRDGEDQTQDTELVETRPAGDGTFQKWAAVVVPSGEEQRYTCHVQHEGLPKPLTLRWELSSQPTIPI
# T1 sequence (P61769 21-119 partner): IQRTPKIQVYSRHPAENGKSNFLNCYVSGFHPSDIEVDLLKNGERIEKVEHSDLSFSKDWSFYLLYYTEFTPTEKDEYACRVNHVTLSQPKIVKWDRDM
# Source text: (§1) Anticipating lengthy NMR data collection times, we first verified the stability of the peptide/HLA-A3 complexes.
# HLA-A3 [2] = target: T1, HLA-A3; experiment: Peptide dissociation from HLA-A3 by fluorescence anisotropy; details: 100 nM labeled complex + 100 μM unlabeled peptide, pH 7.4
# Protocol: as §1
# Fluorescence anisotropy measurements for peptide dissociation were performed as previously described ([15]). […] Changes in anisotropy were recorded as a function of time.
# T cells expressing TCR4 = experiment: T cell degranulation CD107a, TCR4-transduced T cells co-cultured with HLA-A3+ antigen presenting cells; details: peptide concentrations as high as 10 μM
# Protocol: The peptide specificity of TCR-transduced T cells was assessed by intracellular cytokine staining (ICS) using the BD Cytofix/CytoPerm Plus Kit, following manufacturer’s instructions. Cos-7 cells were electroporated with 100 μg/mL of HLA-A*03:01 mRNA and plated into 96-well round-bottom plates overnight. […] Cells were washed with 1x PBS to remove any unbound peptide. […] Cells were washed with 1×PBS and then fixed and permeabilized for 15 minutes at 4 °C. […] All antibodies were used at a final concentration of 5 μg/mL. Finally, cells were washed with perm-wash buffer, suspended in 2% FBS in PBS and acquired on an X20 LSR Fortessa flow cytometer with the BD FACSDiva software.
# HLA-A3 [3] = target: T1, HLA-A3; experiment: 19F NMR of 5F-Trp6 peptides bound to HLA-A3; design: the extracellular domain of the MHC heavy chain, β2-microglobulin, TCR α and β chains, and the s3–4 scTv were overexpressed in E coli; made in house
# Protocol: ^19F NMR spectra were recorded using Bruker 600 MHz NMR instrument with a QCI cryogenic probe at NMRFAM, University of Wisconsin-Madison. […] To obtain similar sensitivities on the two samples at different concentrations, the total acquisition times of the 1D experiments in Figs. 7A–F in were set to approximately 12 hours and 33 hours, accordingly. The spectra were acquired in 4-hour blocks interleaved with proton 1D recordings to verify sample stability. For the data in Extended Data Figs. 6D,E total acquisition times were 20 minutes for both complexes. Probe temperature was maintained at a calibrated value of 5.2 °C. Once all blocks were recorded, they were checked individually for frequency drift, which was not detected, and combined to obtain combined datasets with improved signal/noise ratio. The reference frequency of the ^19F channel was set through internal routines of the Topspin acquisition software after the NMR spectrometer was locked on D2O. […] To improve the signal/noise ratio, we compared recording of ^19F 1D spectra with and without proton decoupling. […] We also optimized a recycle delay for the fluorine 1D experiment and determined that 1 s was the optimal time. Therefore, D1 of 0.4 s was used with AQ of 0.59 s. Line shape deconvolution was performed using Mestrelab MNova NMR. Free induction decays were processed with an exponential window function, Fourier- transformed, and baseline corrected prior to fitting with Lorentzian line shapes. CEST experiments were performed by applying 10–40 μW irradiation on a proton channel at a desired ppm position for 0.4 s. The total acquisition time for each CEST dataset was 2 hours. The bandwidth of the saturation pulse was directly measured on a free peptide sample by varying the saturation ppm position around the sharp peptide peak. The direct effect of the pre-saturation pulse was found detectable within +/− 0.5 ppm from the irradiation position. Exchange Spectroscopy (EXSY) experiments were performed with 50 ms mixing time. […] Data were collected in four six-hour blocks that were combined for processing.
sequence,measurement,setting,value
"AHHGGWTTK [WT peptide, wild-type PIK3CA counterpart peptide presented by HLA-A3]",binding to TCR4 (detection),TCR4,No binding was detectable
same,recognition by multiple neoantigen-specific TCRs,neoantigen-specific TCRs,unable to recognize the WT peptide/HLA-A3 complex
same,stability of peptide/HLA-A3 complex at 37 °C,HLA-A3 [1],markedly less stable
same,stability of peptide/HLA-A3 complex at 25 °C,HLA-A3 [2],markedly less stable
same,T cell stimulation (CD107a),T cells expressing TCR4,no stimulation was evident
same,number of 19F peaks of the complex by line shape fitting,"HLA-A3 [3]; 5F-Trp6 peptide/HLA-A3 complex, 5 °C",at least eight
same,conformational exchange (CEST),"HLA-A3 [3]; 5F-Trp6 peptide/HLA-A3 complex, 5 °C, EXSY consistent",all the peaks were in exchange except for the peak at −125.12 ppm
same,stability of complex on storage (19F NMR),"HLA-A3 [3]; approximately 11 months at 4 °C, 5F-Trp6 peptide/HLA-A3",significant increase in the resonance at −125.12 ppm
